Results published in ChEMBL document CHEMBL1201862, “PubChem BioAssay data set” (2004).
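Each compound was tested at five concentrations against cells in 96-well plates for 48 hours. At the GI50, growth is halved.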 Activity calls are given as the source filed them. Cut-off read from the data, not from the text of the source: active = GI50 up to about 1.1 µM and inactive = higher.

Legend:
Assay in all cases: DTP human tumour cell line panel, 48 h
MDA-MB-231 = test system: MDA-MB-231
SK-MEL-2 = test system: SK-MEL-2
TK-10 = test system: TK-10
MDA-MB-435 = test system: MDA-MB-435
SNB-19 = test system: SNB-19
SK-MEL-28 = test system: SK-MEL-28
NCI/ADR-RES = test system: NCI/ADR-RES
UACC-62 = test system: UACC-62
SN12C = test system: SN12C
SF-295 = test system: SF-295
KM12 = test system: KM12
UO-31 = test system: UO-31
SW-620 = test system: SW-620
OVCAR-8 = test system: OVCAR-8
RPMI-8226 = test system: RPMI-8226
SNB-75 = test system: SNB-75
A549 = test system: A549
ACHN = test system: ACHN
NCI-H460 = test system: NCI-H460
T47D = test system: T47D

SMILES | GI50 (MDA-MB-231) | GI50 (SK-MEL-2) | GI50 (TK-10) | GI50 (MDA-MB-435) | GI50 (SNB-19) | GI50 (SK-MEL-28) | GI50 (NCI/ADR-RES) | GI50 (UACC-62) | GI50 (SN12C) | GI50 (SF-295) | GI50 (KM12) | GI50 (UO-31) | GI50 (SW-620) | GI50 (OVCAR-8) | GI50 (RPMI-8226) | GI50 (SNB-75) | GI50 (A549) | GI50 (ACHN) | GI50 (NCI-H460) | GI50 (T47D)
Cc1ccc(-c2c(C#N)c(S)n(NS(=O)(=O)c3ccc(C)cc3)c(=O)c2C#N)cc1 | 29.6 µM (inactive) | 23.3 µM (inactive) | 19.8 µM (inactive) | 22.3 µM (inactive) | 21.6 µM (inactive) | 22 µM (inactive) | 32.8 µM (inactive) | 28.5 µM (inactive) | 31.5 µM (inactive) | 23.1 µM (inactive) | 18 µM (inactive) | 17.5 µM (inactive) | 19.9 µM (inactive) | 21 µM (inactive) | 24.7 µM (inactive) | 14.3 µM (inactive) | 39.2 µM (inactive) | 20.6 µM (inactive) |  | 
Cc1ccc(C)n1-c1ccccc1C1C=CN(C(=O)OC(C)(C)C)C=C1 | 19.7 µM (inactive) | 16.9 µM (inactive) | 67.3 µM (inactive) | 36.2 µM (inactive) | 47.6 µM (inactive) | 44.9 µM (inactive) | 27.6 µM (inactive) | 25.8 µM (inactive) | 33.6 µM (inactive) | 30 µM (inactive) | 14.9 µM (inactive) | 33.1 µM (inactive) | 19.2 µM (inactive) | 32.7 µM (inactive) | 20.4 µM (inactive) | 13.5 µM (inactive) | 31.1 µM (inactive) | 32.6 µM (inactive) | 28.2 µM (inactive) | 
Fc1ccc(Oc2nc3ccccc3nc2-c2ccccc2)cc1 | > 100 µM (inactive) | > 100 µM (inactive) | > 100 µM (inactive) | > 100 µM (inactive) | > 100 µM (inactive) | > 100 µM (inactive) |  | > 100 µM (inactive) | > 100 µM (inactive) | > 100 µM (inactive) | > 100 µM (inactive) | > 100 µM (inactive) | > 100 µM (inactive) |  | 81.7 µM (inactive) |  |  | > 100 µM (inactive) | > 100 µM (inactive) | 
CC12CC(=O)C3C(C(=O)C1)C32C (configuration not stated) | > 100 µM (inactive) | > 100 µM (inactive) | > 100 µM (inactive) | > 100 µM (inactive) | > 100 µM (inactive) | > 100 µM (inactive) | > 100 µM (inactive) | > 100 µM (inactive) | > 100 µM (inactive) | > 100 µM (inactive) | 0.488 µM (active) | > 100 µM (inactive) | > 100 µM (inactive) | > 100 µM (inactive) | > 100 µM (inactive) | 45.3 µM (inactive) | > 100 µM (inactive) | > 100 µM (inactive) | > 100 µM (inactive) | 
CN(C)c1ccc(/C=C/c2cc(-c3ccccc3)[n+](C)n2-c2ccccc2)cc1 | 0.242 µM (active) | 0.224 µM (active) | 1.7 µM (inactive) | 0.158 µM (active) | 0.0865 µM (active) | 0.597 µM (active) | 4.5 µM (inactive) | 0.481 µM (active) | 0.293 µM (active) | 0.614 µM (active) | 0.0635 µM (active) | 1.86 µM (inactive) | 0.299 µM (active) | 0.207 µM (active) | 0.0221 µM (active) |  | 0.411 µM (active) | 1.44 µM (inactive) | 0.122 µM (active) | 
Cc1cccc2c(N)c3cccc(C(=O)NCCN4CCOCC4)c3nc12 | 0.759 µM (active) | 1.11 µM (active) | 2.1 µM (inactive) | 0.57 µM (active) | 0.236 µM (active) | 1.45 µM (inactive) | 4.35 µM (inactive) | 0.984 µM (active) | 0.364 µM (active) | 0.318 µM (active) | 0.301 µM (active) | 0.46 µM (active) | 0.166 µM (active) | 0.249 µM (active) | 0.493 µM (active) | 0.13 µM (active) | 0.192 µM (active) | 0.101 µM (active) | 0.605 µM (active) | 
CN(C)CCCNC(=O)N/N=C\c1cccc2ccccc12 | > 10 µM (inactive) |  | > 10 µM (inactive) |  |  | > 10 µM (inactive) | > 10 µM (inactive) | > 10 µM (inactive) | > 10 µM (inactive) | > 10 µM (inactive) | > 10 µM (inactive) | 4.45 µM (inactive) | > 10 µM (inactive) | > 10 µM (inactive) | > 10 µM (inactive) | > 10 µM (inactive) | > 10 µM (inactive) | > 10 µM (inactive) | > 10 µM (inactive) | > 10 µM (inactive)
Cc1nc(Cl)c2sc(=S)n(-c3ccc(F)cc3)c2n1 | 7.98 µM (inactive) | 12.8 µM (inactive) | 1.99 µM (inactive) | 2.59 µM (inactive) | 1.88 µM (inactive) | 2.33 µM (inactive) | 6.56 µM (inactive) | 11.8 µM (inactive) | 5.52 µM (inactive) | 10.9 µM (inactive) | 12.7 µM (inactive) | 1.69 µM (inactive) | 3.7 µM (inactive) | 14.6 µM (inactive) | 3.4 µM (inactive) | 1.44 µM (inactive) | 12.8 µM (inactive) | 13.9 µM (inactive) | 13.7 µM (inactive) | 
Cc1ccc(CC(Cc2ccccc2C)C(=O)O)c(C(=O)O)c1 (configuration not stated) | > 100 µM (inactive) | > 100 µM (inactive) | > 100 µM (inactive) | > 100 µM (inactive) | > 100 µM (inactive) | > 100 µM (inactive) | > 100 µM (inactive) |  | > 100 µM (inactive) | > 100 µM (inactive) | > 100 µM (inactive) | > 100 µM (inactive) | > 100 µM (inactive) | > 100 µM (inactive) | > 100 µM (inactive) | > 100 µM (inactive) | > 100 µM (inactive) | > 100 µM (inactive) | > 100 µM (inactive) | 
O=C(O)C(/C=C/c1ccccc1)c1ccccc1 (configuration not stated) | > 100 µM (inactive) | > 100 µM (inactive) | > 100 µM (inactive) |  | > 100 µM (inactive) | > 100 µM (inactive) | > 100 µM (inactive) | > 100 µM (inactive) | > 100 µM (inactive) | > 100 µM (inactive) |  | > 100 µM (inactive) | > 100 µM (inactive) | > 100 µM (inactive) | > 100 µM (inactive) | > 100 µM (inactive) | > 100 µM (inactive) | > 100 µM (inactive) | > 100 µM (inactive) | > 100 µM (inactive)
CC(O[Si](c1ccccc1)(c1ccccc1)C(C)(C)C)[C@H](NC(=O)OC(C)(C)C)C(=O)O (some centres not stated) |  |  | 45 µM (inactive) |  | 36.1 µM (inactive) | 50 µM (inactive) | 46.7 µM (inactive) |  |  | 19.8 µM (inactive) | 35.3 µM (inactive) | 33.9 µM (inactive) | 29.4 µM (inactive) | 42 µM (inactive) | 35.6 µM (inactive) | 43.7 µM (inactive) | 30.4 µM (inactive) | 30.8 µM (inactive) | 55.6 µM (inactive) | 39.8 µM (inactive)
CON(C)C(=O)C(C)N(Cc1ccccc1)Cc1ccccc1 (configuration not stated) |  |  | > 100 µM (inactive) | 88.9 µM (inactive) | > 100 µM (inactive) | > 100 µM (inactive) | 45.5 µM (inactive) | 66.2 µM (inactive) | > 10 µM (inactive) | > 100 µM (inactive) | > 100 µM (inactive) | 38.5 µM (inactive) | > 100 µM (inactive) | > 100 µM (inactive) | 42.8 µM (inactive) | 36.9 µM (inactive) | 57 µM (inactive) | 74.8 µM (inactive) | 59 µM (inactive) | 
